{
  "source": "patent US20050131051A1",
  "about": "“2-3-disubstituted quinuclidiness as modulators of monoamine transporters and theraperutic and diagnostic methods based thereon” (priority 2000, published 2005)",
  "key": {"[1]": {"target": "T1, dopamine transporter (DAT) (Rattus norvegicus, UniProt P23977)", "T1 construct": "P2 membrane pellets were prepared by differential centrifugation from rat striatum; from tissue; host or cells: rat striatum (P2 membrane pellet / P2 synaptosomes)", "assay": "Synaptosomal uptake of [3H]DA (inhibition of DA reuptake)", "assay_type": "biochemical", "method": "The effect of candidate compounds in antagonizing dopamine high-affinity uptake was determined using a method previously employed. For [^3H]DA uptake, freshly dissected rat striata were homogenized with a Teflon-glass pestle in ice-cold 0.32 M sucrose and centrifuged for 10 min at 1000×g. The supernatant was centrifuged at 17,500×g for 20 min. This P2 synaptosomal pellet was resuspended in 30 volumes of ice-cold modified KRH buffer. An aliquot of the synaptosomal suspension was preincubated with the buffer and drug for 30 min at 37° C., and uptake initiated by the addition of [^3H]dopamine (5 nM, final conc.). After 5 min, uptake was terminated by adding 5 ml of cold buffer containing glucosamine as a substitute for NaCl and then finally by rapid vacuum filtration over GF-C glass fiber filters, followed by washing with two 5 ml volumes of ice-cold, sodium-free buffer. Radioactivity retained on the filters was determined by liquid scintillation spectrometry. […] It is identical to that calculated by subtracting the mean of identical tubes incubated at 0° C.\n(§1) IC50 values were determined by a computer assisted, iterative fit to a four-parameter sigmoidal equation (ALLFIT). These values were then converted to Ki values according to the Cheng-Prusoff equation assuming classical competitive inhibition. Preincubation of the drug and synaptosomes at 37° C. for 30 min was used to approximate equilibrium conditions as necessary to satisfy the requirements of the Cheng-Prusoff equation.\n(§2) The effect of candidate compounds in antagonizing dopamine high-affinity uptake was determined using a method previously employed. For [^3H]DA uptake, dissected rat striata were homogenized with a Teflon-glass pestle in ice-cold 0.32 M sucrose and centrifuged for 10 mm at 1000×g. The supernatant was centrifuged at 17,500×g for 20 mm. This P2 synaptosomal pellet was resuspended in 30 volumes of ice-cold modified KRH buffer. An aliquot of the synaptosomal suspension was preincubated with the buffer and drug for 30 mm at 37° C., and uptake initiated by the addition of [^3H]dopamine (5 nM, final conc.). After 5 mm, uptake was terminated by adding 5 ml of cold buffer containing glucosamine as a substitute for NaCl and then finally by rapid vacuum filtration over GF-C glass fiber filters, followed by washing with two 5 ml volumes of ice-cold, sodium-free buffer. Radioactivity retained on the filters was determined by liquid scintillation spectrometry. […] Also, specific uptake of [^3H]5-HT and [^3H]NE were defined in the presence of 10 uM fluoxetine and 1 uM desipramine, respectively."}, "[2]": {"target": "T2, norepinephrine transporter (Rattus norvegicus, UniProt Q63380)", "T2 construct": "using synaptosomes prepared from rat midbrain and parietal/occipital cortex, respectively; from tissue; host or cells: rat parietal/occipital cortex synaptosomes", "T2 sequence (Q63380 1-617)": "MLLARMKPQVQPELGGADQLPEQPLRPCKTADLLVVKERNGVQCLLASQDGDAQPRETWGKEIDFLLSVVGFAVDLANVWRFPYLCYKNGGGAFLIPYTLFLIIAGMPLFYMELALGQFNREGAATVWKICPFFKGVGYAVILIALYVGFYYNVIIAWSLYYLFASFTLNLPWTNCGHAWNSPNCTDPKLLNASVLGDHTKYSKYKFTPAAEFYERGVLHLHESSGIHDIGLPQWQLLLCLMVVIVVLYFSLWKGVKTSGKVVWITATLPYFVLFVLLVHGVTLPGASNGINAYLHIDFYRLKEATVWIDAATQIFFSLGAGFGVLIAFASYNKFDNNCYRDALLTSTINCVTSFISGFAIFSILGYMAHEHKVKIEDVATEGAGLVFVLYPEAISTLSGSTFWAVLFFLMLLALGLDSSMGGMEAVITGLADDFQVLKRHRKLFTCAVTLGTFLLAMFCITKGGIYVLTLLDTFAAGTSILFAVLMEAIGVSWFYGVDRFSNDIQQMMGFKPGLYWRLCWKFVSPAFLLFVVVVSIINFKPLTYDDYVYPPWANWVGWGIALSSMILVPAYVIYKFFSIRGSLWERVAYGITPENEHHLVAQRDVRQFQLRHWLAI", "assay": "Synaptosomal uptake of [3H]NE", "assay_type": "biochemical", "method": "as §1, §2"}, "[3]": {"target": "T1, dopamine transporter (DAT)", "assay": "[3H]mazindol binding assay", "settings": "for Ki: rat striatum membranes, mean ± standard error or range of 2-3 experiments", "method": "Binding assays were conducted as previously described. Briefly conventional P2 membrane pellets were prepared by differential centrifugation from rat striatum. The P2 pellet was resuspended in Krebs-Ringer-HEPES (KRH) buffer consisting of (in mM): NaCl (125), KCl (4.8), MgSO4 (1.2), CaCl2 (1.3), KH2PO4 (1.2), glucose (5.6), nialamide (0.01), and HEPES (25) (pH 7.4) and centrifuged again. Finally, the pellet was resuspended in 30 volumes of buffer, pelleted at 15,000×g and frozen at −80° C. until used. The striatal homogenates were thawed by resuspension in the buffer described above at 75-125 µg protein/ml and incubated with [^3H]mazindol, with or without competing drugs, for 60 min in a 4° C. cold room. […] The bound and free [^3H]mazindol were separated by rapid vacuum filtration over Whatman GF/C filters, using a Brandel M24R cell harvester, followed by two washes with 5 ml of cold buffer. Radioactivity on the filters was then extracted by allowing to sit over night with 5 ml of scintillant. The vials were vortexed and counted. IC50 values were determined using the computer program LIGAND.\nFor binding assays, caudate nuclei were homogenized using a polytron in 0.32 M sucrose and centrifuged for 10 mm at 1000×g. The supernatant was resuspended in cold sucrose and centrifuged at 17,500×g for 20 mm. The pellet was resuspended in Krebs-Ringer-HEPES (KRH) buffer consisting of (in mM): NaCl (125), KCl (4.8), MgSO4 (1.2), CaCl2 (1.3), KH2PO4(1.2), glucose (5.6), nialamide (0.01), and HEPES (25) (pH 7.4) and centrifuged again. Finally, the pellet was resuspended in 30 volumes of buffer, pelleted at 15,000×g and frozen at −80° C. until used. The striatal homogenates were thawed by resuspension in the buffer described above at 75-125 μg protein/ml and incubated with [^3H]mazindol, with or without competing drugs, for 60 mm in a 4° C. cold room. […] The bound and free [^3H]mazindol were separated by rapid vacuum filtration over Whatman GF/C filters, using a Brandel M24R cell harvester, followed by two washes with 5 ml of cold buffer. Radioactivity on the filters was then extracted by allowing to sit over night with 5 ml of scintillant. The vials were vortexed and counted. IC50 values were determined using the computer program LIGAND."}, "[4]": {"target": "T3, serotonin transporter (Rattus norvegicus, UniProt P31652)", "T3 construct": "using synaptosomes prepared from rat midbrain and parietal/occipital cortex, respectively; from tissue; host or cells: rat midbrain synaptosomes", "T3 sequence (P31652 whole entry)": "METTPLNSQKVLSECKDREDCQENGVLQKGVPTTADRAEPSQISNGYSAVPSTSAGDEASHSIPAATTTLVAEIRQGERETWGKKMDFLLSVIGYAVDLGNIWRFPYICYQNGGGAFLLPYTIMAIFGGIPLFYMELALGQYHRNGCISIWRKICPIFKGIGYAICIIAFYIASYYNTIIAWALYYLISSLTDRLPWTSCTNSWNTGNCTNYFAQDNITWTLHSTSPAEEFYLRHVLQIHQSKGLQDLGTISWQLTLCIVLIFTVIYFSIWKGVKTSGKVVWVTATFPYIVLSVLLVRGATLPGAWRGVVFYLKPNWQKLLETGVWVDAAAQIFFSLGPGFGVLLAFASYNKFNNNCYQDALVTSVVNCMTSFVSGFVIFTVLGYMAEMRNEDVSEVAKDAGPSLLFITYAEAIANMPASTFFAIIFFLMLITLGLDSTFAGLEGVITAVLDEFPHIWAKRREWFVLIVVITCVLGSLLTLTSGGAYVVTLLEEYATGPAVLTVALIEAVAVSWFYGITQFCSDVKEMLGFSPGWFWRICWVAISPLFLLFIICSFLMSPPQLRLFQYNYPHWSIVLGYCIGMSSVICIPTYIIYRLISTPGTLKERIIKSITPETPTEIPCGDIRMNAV", "assay": "Synaptosomal uptake of [3H]5-HT", "assay_type": "biochemical", "method": "as §1, §2"}, "[5]": {"target": "DAT (Homo sapiens, UniProt Q01959)", "sequence (Q01959 whole entry, species assumed)": "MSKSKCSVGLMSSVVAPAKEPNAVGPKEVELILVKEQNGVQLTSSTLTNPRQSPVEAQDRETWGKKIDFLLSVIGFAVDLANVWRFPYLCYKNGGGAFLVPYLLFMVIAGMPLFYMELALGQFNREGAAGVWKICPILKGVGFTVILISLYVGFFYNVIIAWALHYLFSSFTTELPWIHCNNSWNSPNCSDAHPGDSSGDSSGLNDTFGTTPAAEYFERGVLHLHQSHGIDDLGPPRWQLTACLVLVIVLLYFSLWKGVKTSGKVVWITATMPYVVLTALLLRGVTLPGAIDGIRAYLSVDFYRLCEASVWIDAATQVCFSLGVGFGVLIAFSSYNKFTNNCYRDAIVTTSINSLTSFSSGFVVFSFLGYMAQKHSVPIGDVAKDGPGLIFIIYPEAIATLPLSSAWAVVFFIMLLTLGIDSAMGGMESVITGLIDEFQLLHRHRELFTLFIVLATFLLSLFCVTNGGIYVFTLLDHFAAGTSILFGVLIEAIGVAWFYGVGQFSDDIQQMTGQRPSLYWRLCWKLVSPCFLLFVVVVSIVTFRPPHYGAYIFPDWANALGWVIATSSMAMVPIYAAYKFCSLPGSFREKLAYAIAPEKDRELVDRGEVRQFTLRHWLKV", "settings": "cited from earlier work"}, "[6]": {"settings": "Ki (nM) DA Reuptake, rat striatal synaptosomes, mean ± standard error or range of 2-3 experiments"}, "[7]": {"settings": "read-out: Ki (nM) [3H] Mazindol Binding"}, "[8]": {"settings": "Ki (nM) NE, synaptosomes from rat parietal/occipital cortex, mean ± standard error or range of 2-3 experiments"}, "[9]": {"settings": "binding affinity and DA reuptake not distinguished in the sentence"}, "[10]": {"settings": "Ki (nM) SER, synaptosomes from rat midbrain, mean ± standard error or range of 2-3 experiments"}},
  "note": "Read-outs that look alike come from different tables or passages of the source.",
  "data": [
    {"smiles": "C=CCCC1C(=O)C2CCN1CC2", "note": "(centres unmarked) [Compound 7, 2-But-3-enylquinuclidin-3-one]", "values": [
      {"measurement": "Ki", "setting": "[1]; [6]", "value": "> 10000", "unit": "nM"},
      {"measurement": "measurable activity in inhibition of DA reuptake", "setting": "[1]; at 10 µM", "value": "did not show any measurable activity"}
    ]},
    {"smiles": "CCCCC1C(c2ccccc2)C2CCN1CC2", "note": "(racemic) [(±)-12, 2-Butyl-3-phenylquinuclidine]", "values": [
      {"measurement": "Ki", "setting": "[2]", "value": "136 ± 11", "unit": "nM"},
      {"measurement": "times more potent than cocaine in inhibition of DA reuptake", "setting": "[1]", "value": "as potent as cocaine"},
      {"measurement": "Ki", "setting": "[1]; [6]", "value": 237, "unit": "nM"},
      {"measurement": "fold improvement over the lead compound (3) in inhibition of DA reuptake", "setting": "[1]; ratio of Ki values", "value": 32, "unit": "fold"},
      {"measurement": "times more potent than cocaine in binding affinity", "setting": "[3]", "value": "as potent as cocaine"},
      {"measurement": "Ki", "setting": "[3]; [7]", "value": 210, "unit": "nM"},
      {"measurement": "fold improvement over the lead compound (3) in binding affinity", "setting": "[3]; ratio of Ki values", "value": 31, "unit": "fold"},
      {"measurement": "Ki", "setting": "[4]", "value": "655 ± 21", "unit": "nM"}
    ]},
    {"smiles": "CCCCC1C(c2ccc(C)cc2)C2CCN1CC2", "note": "(single isomer, unassigned; (+)) [(+)-13, 2-Butyl-3-(4-methylphenyl)quinuclidine]", "values": [
      {"measurement": "Ki", "setting": "[2]", "value": "164 ± 47", "unit": "nM"},
      {"measurement": "Ki", "setting": "[1]; [6]", "value": 354, "unit": "nM"},
      {"measurement": "Ki", "setting": "[3]; [7]", "value": 343, "unit": "nM"},
      {"measurement": "Ki", "setting": "[4]", "value": "508 ± 22", "unit": "nM"}
    ]},
    {"smiles": "CCCCC1C(c2ccc(C)cc2)C2CCN1CC2", "note": "(single isomer, unassigned; (-)) [(−)-13, 2-Butyl-3-(4-methylphenyl)quinuclidine]", "values": [
      {"measurement": "Ki", "setting": "[2]; [8]", "value": "15 ± 3", "unit": "nM"},
      {"measurement": "times more potent than cocaine in inhibition of DA reuptake", "setting": "[1]", "value": 9, "unit": "times"},
      {"measurement": "Ki", "setting": "[1]; [6]", "value": 32, "unit": "nM"},
      {"measurement": "fold more potent than (±)-13", "setting": "[1]; [9]", "value": "approximately 2 fold"},
      {"measurement": "fold more potent than its enantiomer (+)-13", "setting": "[1]; [9]", "value": 11, "unit": "fold"},
      {"measurement": "fold improvement over the lead compound (3) in inhibition of DA reuptake", "setting": "[1]; ratio of Ki values", "value": 278, "unit": "fold"},
      {"measurement": "times more potent than cocaine in binding affinity", "setting": "[3]", "value": 17, "unit": "times"},
      {"measurement": "Ki", "setting": "[3]; Ki (nM) [3H] Mazindol Binding", "value": 14, "unit": "nM"},
      {"measurement": "fold improvement over the lead compound (3) in binding affinity", "setting": "[3]; ratio of Ki values", "value": 519, "unit": "fold"},
      {"measurement": "Ki", "setting": "[4]; [10]", "value": "26 ± 3", "unit": "nM"}
    ]},
    {"smiles": "COC(=O)[C@H]1[C@@H](c2ccccc2)C[C@@H]2CC[C@H]1N2C", "note": "[2 (WIN 35065-2), WIN 35065-2]", "values": [
      {"measurement": "binding affinity at the DAT site, times better than cocaine", "setting": "[5]", "value": 4, "unit": "times"}
    ]},
    {"smiles": "CCCCC1C(c2ccc(C)cc2)C2CCN1CC2", "note": "(racemic) [(±)-13, 2-Butyl-3-(4-methylphenyl)quinuclidine]", "values": [
      {"measurement": "Ki", "setting": "[2]; [8]", "value": "62 ± 5", "unit": "nM"},
      {"measurement": "Ki", "setting": "[1]; [6]", "value": 49, "unit": "nM"},
      {"measurement": "fold improvement over 13 (so in the source) in uptake activity", "setting": "[1]; ratio of Ki values", "value": 5, "unit": "fold"},
      {"measurement": "fold improvement over the lead compound (3) in inhibition of DA reuptake", "setting": "[1]; ratio of Ki values", "value": 181, "unit": "fold"},
      {"measurement": "Ki", "setting": "[3]; Ki (nM) [3H] Mazindol Binding", "value": 20, "unit": "nM"},
      {"measurement": "fold improvement over 13 (so in the source) in binding activity", "setting": "[3]; ratio of Ki values", "value": 11, "unit": "fold"},
      {"measurement": "fold improvement over the lead compound (3) in binding affinity", "setting": "[3]; ratio of Ki values", "value": 365, "unit": "fold"},
      {"measurement": "Ki", "setting": "[4]; [10]", "value": "77 ± 7", "unit": "nM"}
    ]},
    {"smiles": "C=CCCC1N2CCC(CC2)C1(O)c1ccccc1", "note": "(centres unmarked) [Compound 8, 2-But-3-enyl-3-phenylquinuclidin-3-ol]", "values": [
      {"measurement": "Ki", "setting": "[1]; Ki value (text, refers to Table 1 DA reuptake)", "value": 31200, "unit": "nM"},
      {"measurement": "fold less potent than 12", "setting": "[1]; ratio of Ki values, DA reuptake", "value": 131, "unit": "fold"}
    ]}
  ]
}
